Measurements from US11472798B2 (Mission Therapeutics Limited, priority 2014, dated 2022).

Target: T1, UCHL1 (Homo sapiens, UniProt P09936)
T1 construct: made in house; host or cells: HEK293T
T1 sequence (P09936 1-223): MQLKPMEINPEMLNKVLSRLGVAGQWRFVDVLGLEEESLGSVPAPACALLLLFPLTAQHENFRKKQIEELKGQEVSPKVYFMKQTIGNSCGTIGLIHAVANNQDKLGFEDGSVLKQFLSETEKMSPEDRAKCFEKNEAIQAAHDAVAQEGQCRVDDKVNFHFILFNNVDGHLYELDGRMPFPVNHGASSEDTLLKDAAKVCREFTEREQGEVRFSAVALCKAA
Assay: UCHL1 biochemical IC50 assay (fluorescence polarisation)
Settings: 30 min enzyme/compound pre-incubation at room temp, read after 2 hr incubation, read-out: Activity range (UCHL1 biochemical IC50 assay)
Summary of the method: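 FLAG-UCHL1 purified from transfected HEK293T cells was preincubated 30 min at room temperature with compound (8 points, 100–0.03 μM final) in Tris pH 7.5 buffer with Tween 20, BSA and beta-mercaptoethanol. Reaction started with 50 nM TAMRA-peptide–ubiquitin isopeptide substrate; fluorescence polarisation (ex 540/em 590 nm) read at once and after 2 h.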

| Compound | IC50 |
| --- | --- |
| Cc1nn(C)cc1-c1ccc2nc(NC(=O)[C@H]3CCN(C#N)C3)sc2c1 [Example 288, (S)-1-cyano-N-(6-(1,3-dimethyl-1H-pyrazol-4-yl)benzo[d]thiazol-2-yl)pyrrolidine-3-carboxamide] | < 1000 nM |
| Cc1noc(C)c1-c1ccc2cnc(NC(=O)[C@H]3CCN(C#N)C3)cc2c1 [Example 261, (S)-1-cyano-N-(6-(3,5-dimethylisoxazol-4-yl)isoquinolin-3-yl)pyrrolidine-3-carboxamide] | < 1000 nM |
| N#CN1CC[C@H](C(=O)Nc2cc3n(n2)CCN(Cc2ccccc2)C3)C1 [Example 242, (S)—N-(5-benzyl-4,5,6,7-tetrahydropyrazolo[1,5-a]pyrazin-2-yl)-1-cyanopyrrolidine-3-carboxamide] | < 1000 nM |
| C[C@@H]1CN(C#N)C[C@H]1C(=O)Nc1ncc(N2CCCCC2)s1 (racemic) [Example 104, (±)-trans-1-cyano-4-methyl-N-(5-(piperidin-1-yl)thiazol-2-yl)pyrrolidine-3-carboxamide] | < 1000 nM |
| CC1CC(C(=O)Nc2cn(-c3ccccc3)cn2)CN1C#N (mixture of isomers) [Example 89, I-cyano-5-methyl-N-(1-phenyl-1H-imidazol-4-yl)pyrrolidine-3-carboxamide] | 10000 to 30000 nM |
| CC[C@@H]1CN(C#N)C[C@H]1C(=O)Nc1cn(-c2ccccc2)cn1 [Example 87, (6)-1-cyano-4-ethyl-N-(1-phenyl-1H-imidazol-4-yl)pyrrolidine-3-carboxamide] | 1000 to 10000 nM |
| N#CN1CC[C@H](C(=O)Nc2cn(-c3ccc4[nH]ncc4c3)cn2)C1 [Example 300, (S)-N-(1-(1H-indazol-5-yl)-1H-imidazol-4-yl)-1-cyanopyrrolidine-3-carboxamide] | < 1000 nM |
| N#CN1CC[C@H](C(=O)Nc2ncc(-c3ccc(F)c(C(N)=O)c3)s2)C1 [Example 236, (S)-N-(5-(3-carbamoyl-4-fluorophenyl)thiazol-2-yl)-1-cyanopyrrolidine-3-carboxamide] | < 1000 nM |
| CC1CC(C(=O)Nc2ncc(N3CCCCC3)s2)CN1C#N (stereo not shown) [Example 105, 1-cyano-5-methyl-N-(5-(piperidin-1-yl)thiazol-2-yl)pyrrolidine-3-carboxamide] | 1000 to 10000 nM |
| N#CN1CC[C@H](C(=O)Nc2cn(-c3ccc(F)cc3)cn2)C1 [Example 150, (S)-1-cyano-N-(1-(4-fluorophenyl)-1H-imidazol-4-yl)pyrrolidine-3-Carboxamide] | < 1000 nM |
| N#CN1CC[C@H](C(=O)Nc2cn(-c3cccc(F)c3)cn2)C1 [Example 151, (S)-1-cyano-N-(1-(3-fluorophenyl)-1H-imidazol-4-yl)pyrrolidine-3-carboxamide] | < 1000 nM |
| N#CN1CCC(C(=O)Nc2cnc(-c3ccccc3)s2)C1 (stereo not shown) [Example 10, 1-cyano-N-(2-phenylthiazol-5-yl)pyrrolidine-3-carboxamide] | 10000 to 30000 nM |
| N#CN1CC[C@H](C(=O)Nc2ncc(-c3cccc(C(N)=O)c3)s2)C1 [Example 232, (S)-N-(5-(3-carbamoylphenyl)thiazol-2-yl)-1-cyanopyrrolidine-3-carboxamide] | < 1000 nM |
| COC[C@H]1CCCN1Cc1cnc(NC(=O)[C@H]2CCN(C#N)C2)s1 [Example 143, (S)-1-cyano-N-(5-(((R)-2-(methoxymethyl)pyrrolidin-1-yl)methyl)thiazol-2-yl)pyrrolidine-3-carboxamide] | 1000 to 10000 nM |
| COc1cccc(-n2cnc(NC(=O)[C@H]3CCN(C#N)C3)c2)c1 [Example 183, (S)-1-cyano-N-(1-(3-methoxyphenyl)-1H-imidazol-4-yl)pyrrolidine-3-carboxamide] | < 1000 nM |
| COc1ccccc1C(=O)N1CCc2nc(NC(=O)[C@H]3CCN(C#N)C3)sc2C1 [Example 192, (S)-1-cyano-N-(5-(2-methoxybenzoyl)-4,5,6,7-tetrahydrothiazolo[5,4-c]pyridin-2-yl)pyrrolidine-3-carboxamide] | < 1000 nM |
| N#Cc1ccc(-n2cnc(NC(=O)[C@H]3CCN(C#N)C3)c2)cc1OC1COC1 [Example 249, (S)-1-cyano-N-(1-(4-cyano-3-(oxetan-3-yloxy)phenyl)-1H-imidazol-4-yl)pyrrolidine-3-carboxamide] | < 1000 nM |

The remaining lines, values ahead:

| IC50 | Compound |
| --- | --- |
| < 1000 nM | COc1cc(-n2cnc(NC(=O)[C@H]3CCN(C#N)C3)c2)ccc1C#N [Example 307, (S)-1-cyano-N-(1-(4-cyano-3-methoxyphenyl)-1H-imidazol-4-yl)pyrrolidine-3-carboxamide] |
| 10000 to 30000 nM | CC(C)(C)c1cc(NC(=O)C2CCN(C#N)C2)no1 (stereo not shown) [Example 16, N-(5-(tert-butyl)isoxazol-1-3-yl)-1-cyano-pyrrolidine-3-carboxamide] |
| 1000 to 10000 nM | CNc1cc(-c2ccnc(NC(=O)[C@H]3CCN(C#N)C3)c2)ccn1 [Example 259, (S)-1-cyano-N-(2′-(methylamino)-[4,4′-bipyridin]-2-yl)pyrrolidine-3-carboxamide] |
| 1000 to 10000 nM | N#CN1CC[C@H](C(=O)Nc2cn(-c3ccccc3)nn2)C1 [Example 44, (S)-1-cyano-N-(1-phenyl-1H-1,2,3-triazol-4-yl)pyrrolidine-3-carboxamide] |
| < 1000 nM | Cc1oncc1-c1cccc(-c2ccnc(NC(=O)[C@H]3CCN(C#N)C3)c2)c1 [Example 290, (S)-1-cyano-N-(4-(3-(5-methylisoxazol-4-yl)phenyl)pyridin-2-yl)pyrrolidine-3-carboxamide] |
| 1000 to 10000 nM | COC[C@@H]1CCCN1Cc1cnc(NC(=O)[C@H]2CCN(C#N)C2)s1 [Example 144, (S)-1-cyano-N-(5-(((S)-2-(methoxymethyl)pyrrolidin-1-yl)methyl)thiazol-2-yl)pyrrolidine-3-carboxamide] |
| < 1000 nM | CNC(=O)c1cccc(-c2cnc(NC(=O)[C@H]3CCN(C#N)C3)s2)n1 [Example 224, (S)-6-(2-(1-cyanopyrrolidine-3-carboxamido)thiazol-5-yl)-N-methylpicolinamide] |
| < 1000 nM | Cc1cccc2nc(NC(=O)[C@H]3CCN(C#N)C3)sc12 [Example 47, (S)-1-cyano-N-(7-methylbenzo[d]thiazol-2-yl)-pyrrolidine-3-carboxamide] |
| 1000 to 10000 nM | Cc1nccc(-n2cnc(NC(=O)[C@H]3CCN(C#N)C3)c2)n1 [Example 176, (S)-1-cyano-N-(1-(2-methylpyrimidin-4-yl)-1H-imidazol-4-yl)pyrrolidine-3-carboxamide] |
| 1000 to 10000 nM | N#CN1CC[C@H](C(=O)Nc2ncc(-c3ccccn3)s2)C1 [Example 70, (S)-1-cyano-N-(5-(pyridin-2-yl)thiazol-2-yl)pyrrolidine-3-carboxamide] |
| < 1000 nM | N#Cc1ccc(OC2COC2)cc1-n1cnc(NC(=O)[C@H]2CCN(C#N)C2)c1 [Example 250, (S)-1-cyano-N-(1-(2-cyano-5-(oxetan-3-yloxy)phenyl)-1H-imidazol-4-yl)pyrrolidine-3-carboxamide] |
| < 1000 nM | C#Cc1ccc(-c2cnc(NC(=O)[C@H]3CCN(C#N)C3)s2)cc1 [Example 205, (S)-1-cyano-N-(5-(4-ethynylphenyl)thiazol-2-yl)pyrrolidine-3-carboxamide] |
| < 1000 nM | Cc1noc(C)c1CCn1cnc(NC(=O)[C@H]2CCN(C#N)C2)c1 [Example 179, (S)-1-cyano-N-(1-(2-(3,5-dimethylisoxazol-4-yl)ethyl)-1H-imidazol-4-yl)pyrrolidine-3-carboxamide] |
| < 1000 nM | N#CN1CC[C@H](C(=O)Nc2cn(Cc3cccnc3)cn2)C1 [Example 169, (S)-1-cyano-N-(1-(pyridin-3-ylmethyl)-1H-imidazol-4-yl)pyrrolidine-3-carboxamide] |
| 1000 to 10000 nM | N#CN1CC[C@H](C(=O)Nc2cnc(N3CCCC3)cn2)C1 [Example 108, (S)-1-cyano-N-(5-(pyrrolidin-1-yl)pyrazin-2-yl)pyrrolidine-3-carboxamide] |
| < 1000 nM | CNC(=O)c1cccc(-c2cnc(NC(=O)[C@H]3CCN(C#N)C3)s2)c1 [Example 233, (S)-1-cyano-N-(5-(3-(methylcarbamoyl)phenyl)thiazol-2-yl)pyrrolidine-3-carboxamide] |
| 1000 to 10000 nM | N#CN1CC(C(=O)Nc2ncc(-c3ccccc3)s2)C2CC21 (stereo not shown) [Example 280, 2-cyano-N-(5-phenylthiazol-2-yl)-2-azabicyclo[3.1.0]hexane-4-carboxamide] |
| < 1000 nM | CNC(=O)c1cc(-c2cnc(NC(=O)[C@H]3CCN(C#N)C3)s2)ccc1F [Example 231, (S)-1-cyano-N-(5-(4-fluoro-3-(methylcarbamoyl)phenyl)thiazol-2-yl) pyrrolidine-3-carboxamide] |
| < 1000 nM | N#CN1CCC(C(=O)Nc2ncc(-c3ccc(Cl)cc3)s2)C1 (stereo not shown) [Example 4, N-(5-(4-chlorophenyl)thiazol-2-yl)-1-cyano-pyrrodine-3-carboxamide] |
| 1000 to 10000 nM | N#CN1CCC(C(=O)Nc2ccc(-c3ccccc3)nc2)C1 (stereo not shown) [Example 35, 1-cyano-N-(6-phenylpyridin-3-yl)pyrrolidine-3-carboxamide] |
| < 1000 nM | Cn1ncc2cc(-c3cnc(NC(=O)[C@H]4CCN(C#N)C4)s3)ccc21 [Example 226, (S)-1-cyano-N-(5-(1-methyl-1H-indazol-5-yl)thiazol-2-yl)pyrrolidine-3-carboxamide] |
| < 1000 nM | COCCOc1cc(-n2cnc(NC(=O)[C@H]3CCN(C#N)C3)c2)ccc1C#N [Example 243, (S)-1-cyano-N-(1-(4-cyano-3-(2-methoxyethoxy)phenyl)-1H-imidazol-4-yl)pyrrolidine-3-carboxamide] |
| < 1000 nM | N#CN1CC[C@H](C(=O)Nc2cn(C3CCN(C(=O)c4ccccc4)C3)cn2)C1 (stereo partly drawn) [Example 185, (3S)—N-(1-(1-benzoylpyrrolidin-3-yl)-1H-imidazol-4-yl)-1-cyanopyrrolidine-3-carboxamide] |
